From patent publication US7202254B2, “Antibacterial compounds: process for their preparation and pharmaceutical compositions containing them” (Dr. Reddy's Laboratories Limited, priority 2002, dated 2007) come the findings set out here.

The structures appear in SMILES notation. In brackets after ≈: the same amount, converted by molar mass.

Data set [1] concerns Staphylococcus aureus ATCC 33591. Description: MIC by broth microdilution, Staphylococcus aureus DRCC 019 (MRSA). As to conditions: DRCC 019 = ATCC 33591, MRSA, Mueller Hinton Broth, overnight 37° C., read-out: Antimicrobial Screening (MIC) Staphylococcus aureus 019 MRSA. Type of data set: cell-based. As to the method: (§1) Minimum Inhibiton Concentrations (MICs) were determined by broth microdilution technique as per the guidelines prescribed om the fifth edition of Approved Standards, NCCLS document M7-A5 Vol 20-No 2, 2000 Villinova, Pa.
(§2) Initial stock solution of the test compound was prepared in DMSO. Subsequent two fold dilutions were carried out in sterile Mueller Hinton Broth (Difco) (MHB).
(§3) Frozen cultures stocks were inoculated into 50 mL sterile MHB in 250 mL Erlyn Meyer flasks.
(§4) Flasks were incubated for 4 to 5 h at 35° C. on a rotary shaker at 150 rpm. Inoculum was prepared by diluting the culture in sterile MHB to obtain a turbidity of 0.5 McFarland standard. This corresponds to 1–2×10^8 CFU/mL. The stock was further diluted in sterile broth to obtain 1–2×10^6 CFU/mL. 50 μl of the above diluted inoculum was added from 1–10 wells. The plates were incubated overnight at 37° C.

For data set [2], the system named is Staphylococcus aureus ATCC 49951. Description: MIC by broth microdilution, Staphylococcus aureus DRCC 213 (Smith S). The data set is classed as cell-based. The note with it: ATCC49951, DRCC 213 = ATCC 49951, Smith S, Mueller Hinton Broth, overnight 37° C., read-out: Antimicrobial Screening (MIC) Staphylococcus aureus 213 Smith S. As to the method: as §1, §2, §3, §4
A general note: Broth dilution looks for growth in wells or tubes with falling amounts of substance.

Data set [3] deals with Staphylococcus aureus ATCC 29213. Description: MIC by broth microdilution, Staphylococcus aureus DRCC 035 (S). The data set is classed as cell-based. The note with it: ATCC29213, DRCC 035 = ATCC 29213, S, Mueller Hinton Broth, overnight 37° C., read-out: Antimicrobial Screening (MIC) Staphylococcus aureus 035 S. As to the method:
as §1, §2, §3, §4

Data set [4] relates to Enterococcus faecalis ATCC 29212. Description: MIC by broth microdilution, Enterococcus sp DRCC 034 (S). The data set is classed as cell-based. The note with it: ATCC29212; DRCC 034 = Enterococcus faecalis ATCC 29212, S; Mueller Hinton Broth, overnight 37° C.; read-out: Antimicrobial Screening (MIC) Enterococcus sp 034 S. On the procedure:
as §1, §2, §3, §4

The subject of data set [5] is Enterococcus faecalis NCTC 12201. Description: MIC by broth microdilution, Enterococcus sp DRCC 153 (R). Type of data set: cell-based. As to conditions: NCTC12201; DRCC 153 = Enterococcus faecalis NCTC 12201, R; Mueller Hinton Broth, overnight 37° C.; read-out: Antimicrobial Screening (MIC) Enterococcus sp 153 R. On the procedure: as §1, §2, §3, §4
Data set [6] has as its system Enterococcus faecium NCTC 12202. Description: MIC by broth microdilution, Enterococcus sp DRCC 154 (R). The data set is classed as cell-based. The note with it: NCTC12202; DRCC 154 = Enterococcus faecium NCTC 12202, R; Mueller Hinton Broth, overnight 37° C.; read-out: Antimicrobial Screening (MIC) Enterococcus sp 154 R. As to the method:
as §1, §2, §3, §4

The subject of data set [7] is Escherichia coli ATCC 25922. Description: MIC by broth microdilution, E coli DRCC 18 (S). As to conditions: ATCC25922; DRCC 018 = Escherichia coli ATCC 25922, S; Mueller Hinton Broth, overnight 37° C.; read-out: Antimicrobial Screening (MIC) E coli 18 S. Type of data set: cell-based. As to the method:
as §1, §2, §3, §4

On to `CC(=S)NCc1cn(-c2cc(F)c(N3CCOCC3)c(F)c2)nn1` [Example 51, N-[1-(3,5-Difluoro-4-morpholin-4-yl-phenyl)-1H-[1,2,3]triazol-4-ylmethyl]-thioacetamide], for which the melting point worked out at 190 °C. In addition, the minimum inhibitory concentration (MIC) in data set [1] came out at 1 µg/mL (≈ 2.83 µM). For the same compound, the MIC in data set [2] came to 1 µg/mL (≈ 2.83 µM). Moreover, the minimum inhibitory concentration (MIC) in data set [3] was found to be 1 µg/mL (≈ 2.83 µM). Further, the MIC in data set [4] turned out to be 2 µg/mL (≈ 5.66 µM). Moreover, the MIC in data set [5] was 1 µg/mL (≈ 2.83 µM). The MIC in data set [6] came out at 2 µg/mL (≈ 5.66 µM). In addition, in data set [7], the MIC came to 32 µg/mL (≈ 90.5 µM).

For `COC(=S)NCc1cn(-c2cc(F)c(N3CCS(=O)(=O)CC3)c(F)c2)nn1` [Example 58, {1-[4-(1,1-Dioxo-1lambda*6*-thiomorpholin-4-yl)-3,5-difluoro-phenyl]-1H-[1,2,3]triazol-4-ylmethyl}-thiocarbamic acid O-methyl ester], the melting point was found to be 162 °C. Besides, the MIC in data set [1] was found to be 1 µg/mL (≈ 2.4 µM). Further, in data set [2], the MIC worked out at 2 µg/mL (≈ 4.79 µM). The MIC in data set [3] amounted to 2 µg/mL (≈ 4.79 µM). For the same compound, in data set [4], the MIC worked out at 4 µg/mL (≈ 9.58 µM). The MIC in data set [5] was 2 µg/mL (≈ 4.79 µM). Moreover, in data set [6], the MIC is 4 µg/mL (≈ 9.58 µM). Besides, in data set [7], the MIC turned out to be 32 µg/mL (≈ 76.7 µM).

On to `COC(=S)NCc1cn(-c2cc(F)c(N3CCSCC3)c(F)c2)nn1` [Example 56, [1-(3,5-Difluoro-4-thiomorpholin-4-yl-phenyl)-1H-[1,2,3]triazol-4-ylmethyl]-thiocarbamic acid O-methyl ester], for which the melting point turned out to be 127 °C. Besides, in data set [1], the MIC was found to be 1 µg/mL (≈ 2.59 µM). Besides, the MIC in data set [2] worked out at 1 µg/mL (≈ 2.59 µM). The MIC in data set [3] is 2 µg/mL (≈ 5.19 µM). For the same compound, the MIC in data set [4] was 2 µg/mL (≈ 5.19 µM). Also, the MIC in data set [5] stood at 2 µg/mL (≈ 5.19 µM). The MIC in data set [6] was found to be 8 µg/mL (≈ 20.8 µM). Besides, in data set [7], the MIC was 32 µg/mL (≈ 83 µM).

For `COC(=S)NCc1cn(-c2cc(F)c(N3CCOCC3)c(F)c2)nn1` [Example 54, [1-(3,5-Difluoro-4-morpholin-4-yl-phenyl)-1H-[1,2,3]triazol-4-ylmethyl]-thiocarbamic acid O-methyl ester], the melting point was 135 °C. The MIC in data set [1] was found to be 2 µg/mL (≈ 5.41 µM). For the same compound, the MIC in data set [2] came to 2 µg/mL (≈ 5.41 µM). In addition, in data set [3], the MIC is 4 µg/mL (≈ 10.8 µM). For the same compound, the MIC in data set [4] stood at 4 µg/mL (≈ 10.8 µM). Further, in data set [5], the minimum inhibitory concentration (MIC) turned out to be 4 µg/mL (≈ 10.8 µM). Moreover, in data set [6], the MIC came to 4 µg/mL (≈ 10.8 µM). Moreover, the MIC in data set [7] worked out at 32 µg/mL (≈ 86.6 µM).

Regarding `COC(=S)NCc1cn(-c2ccc(N3CCSCC3)c(F)c2)nn1` [Example 59, [1-(3-Fluoro-4-thiomorpholin-4-yl-phenyl)-1H-[1,2,3]triazol-4-ylmethyl]-thiocarbamic acid O-methyl ester], the melting point stood at 168 °C. In addition, the MIC in data set [1] came to 2 µg/mL (≈ 5.44 µM). Further, the MIC in data set [2] was found to be 2 µg/mL (≈ 5.44 µM). The MIC in data set [3] came to 4 µg/mL (≈ 10.9 µM). Further, the MIC in data set [4] came out at 8 µg/mL (≈ 21.8 µM). Moreover, the MIC in data set [5] was 8 µg/mL (≈ 21.8 µM). In data set [6], the MIC worked out at 8 µg/mL (≈ 21.8 µM). Further, the minimal inhibitory concentration (MIC) in data set [7] is above 32 µg/mL.

In turn, `COC(=S)NCc1cn(-c2ccc(N3CC[S+]([O-])CC3)c(F)c2)nn1` [Example 60, {1-[3-Fluoro-4-(1-oxo-lambda*4*-thiomorpholin-4-yl)-phenyl]-1H-[1,2,3]triazol-4-ylmethyl}-thiocarbamic acid O-methyl ester] gave a melting point of 198 °C. Further, the minimal inhibitory concentration (MIC) in data set [1] came to 1 µg/mL (≈ 2.61 µM). The MIC in data set [2] came out at 1 µg/mL (≈ 2.61 µM). In addition, the MIC in data set [3] was 2 µg/mL (≈ 5.22 µM). Moreover, the MIC in data set [4] worked out at 2 µg/mL (≈ 5.22 µM). Also, the minimum inhibitory concentration (MIC) in data set [5] amounted to 1 µg/mL (≈ 2.61 µM). Moreover, the MIC in data set [6] is 4 µg/mL (≈ 10.4 µM). In addition, in data set [7], the MIC was above 32 µg/mL.

With `CC(=S)NCc1cn(-c2ccc(N3CCOCC3)c(F)c2)nn1` [Example 52, N-[1-(3-Fluoro-4-morpholin-4-yl-phenyl)-1H-[1,2,3]triazol-4-ylmethyl]-thioacetamide], the melting point is 192 °C. For the same compound, in data set [1], the MIC is 2 µg/mL (≈ 5.96 µM). In addition, in data set [2], the MIC worked out at 2 µg/mL (≈ 5.96 µM). Besides, in data set [3], the MIC came to 2 µg/mL (≈ 5.96 µM). In addition, the minimum inhibitory concentration (MIC) in data set [4] was 2 µg/mL (≈ 5.96 µM). In addition, in data set [5], the MIC was 2 µg/mL (≈ 5.96 µM). In data set [6], the MIC is 2 µg/mL (≈ 5.96 µM). The MIC in data set [7] amounted to 256 µg/mL (≈ 763 µM).

By MIC is commonly meant the lowest concentration that inhibits growth of the organism. Usually melting point stands for the temperature, or range, at which the solid turns liquid.
